Laboratory results taken from patent USRE32016E, “Analysis of lactic acid or lactate using lactate oxidase” (Eastman Kodak Company, priority 1981, dated 1985).

Biological target: lactate oxidase from Streptococcus faecalis ATCC 12755 (Enterococcus casseliflavus, UniProt C9AC47)
Details: read-out: Km for L(+)-lactate; 30° C., potassium phosphate buffer pH 7.0
Protocol: For spectrophotometric assay of the lactate oxidase standard reaction mixtures contained in a total volume of 1.0 ml: 100 μmoles potassium phosphate buffer, pH 7.0, 25 μmoles lactic acid, 30 μg horseradish peroxidase (5.6 purpurogallin units), and 0.25 μmoles orthodianisidine. Samples were equilibrated at 30° C. and then reactions initiated by addition of S. faecalis lactate oxidase. Absorbance at 430 nm was measured in a Beckman A-25 Spectrophotometer. Initial rates were calculated from the linear portion of the curve and converted to units of lactate oxidase activity were appropriate. One unit=1 μmole of dye produced per minute at 30° C. using an ε=1.1×10^4 for orthodianisidine.
Reaction mixtures contained in a total volume of 1.0 ml: 90 μmoles potassium phosphate buffer, (pH 7.0), 0.2 μmoles orthodianisidine, or 96 μg 4-aminoantipyrene hydrochloride and 32 μg 1,7-dihydroxynaphthalene, 25 μg horseradish peroxidase (5.6-purpurogallin units) and 0.64 mg lactate oxidase (0.4 units).
Samples were equilibrated at 30° C. and the initial absorbance measured at 430 nm. […] For each serum sample, a blank, which contained all components except the lactate oxidase, was treated in the same manner as the sample. The ΔA430 for each blank was subtracted from the ΔA430 of the appropriate sample and the lactate concentration was determined by comparison to a lactate standard curve. […]

Sequence of lactate oxidase from Streptococcus faecalis ATCC 12755 (C9AC47 entry or part of it): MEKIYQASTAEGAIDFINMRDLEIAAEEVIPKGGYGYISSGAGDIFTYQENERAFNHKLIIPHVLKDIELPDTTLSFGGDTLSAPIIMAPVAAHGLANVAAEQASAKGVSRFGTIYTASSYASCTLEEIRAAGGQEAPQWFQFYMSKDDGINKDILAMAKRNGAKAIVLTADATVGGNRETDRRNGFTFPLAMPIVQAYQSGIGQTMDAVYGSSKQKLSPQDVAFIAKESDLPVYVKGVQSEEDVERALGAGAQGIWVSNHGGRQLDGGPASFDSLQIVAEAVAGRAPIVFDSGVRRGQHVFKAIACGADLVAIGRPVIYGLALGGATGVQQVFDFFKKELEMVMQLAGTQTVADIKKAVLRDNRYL

Q: `C[C@H](O)C(=O)O` [L(+)-lactate] was tested. Which Km did it give?
A: Its Km is 200 µM.
